Results: patent publication US10709140B2, “Methods and products for reducing the population size of Papilio demoleus L. (papilionidae)” (The University of The West Indies, priority 2010, dated 2020)

What was measured:
P. demoleus [1] = test: Induced egg laying of P. demoleus on Piper amalago var. amalago plant sprayed with lime plant oil (choice test, Example 2); format: in vivo, Papilio demoleus; settings: Piper amalago var. amalago plant sprayed with the attractant
Source text: P. demoleus were induced to lay eggs on Piper amalago var. amalago plant to confirm its unsuitability to sustain target insects and to determine whether it could be used to reduce the population size of target insects. Natural Piper amalago var. amalago plant was considered a suitable non-host plant because P. demoleus would not feed or breed on it in the wild.
Twelve pupae bred on lime plants were placed in the laying cage and were allowed to mate. Gravid females were given a choice of plants on which to lay: unsprayed lime, unsprayed Piper amalago var. amalago plant, and Piper amalago var. amalago plant sprayed with lime plant oil. Piper amalago var. amalago plant sprayed with lime plant oil was prepared using an aerosol spray containing 0.45% by weight lime plant oil in a hydrocarbon mixture. The aerosol mixture was applied to the young leaves of Piper amalago var. amalago plants twice daily.
Gravid females were allowed to lay eggs until the laying subsided on the tenth day. Of the 95 eggs laid, the majority were laid on Piper amalago var. amalago plant sprayed with lime oil. Sixty-one eggs, or 64%, were laid on Piper amalago var. amalago plant sprayed with lime oil. Only 34 eggs, or 36%, were laid on unsprayed lime plant. No eggs were laid on unsprayed Piper amalago var. amalago plant. […]

P. demoleus [2] = test: Egg laying by P. demoleus on Piper aduncum cuttings sprayed with lime oil or d-limonene (choice test, Example 5); format: in vivo, Papilio demoleus
Description: Five P. demoleus pupae were placed in the cage. Upon hatching, the emerging adults were determined to be 3 males and 2 females. The butterflies were allowed to mate and given a choice of plants on which to lay by placing all around the cage unsprayed lime seedlings, unsprayed Piper aduncum cuttings, Piper aduncum cuttings sprayed with lime oil, and Piper aduncum cuttings sprayed with d-limonene. Egg laying was allowed to continue for up a total of 16 days, only the first 8 of which the Piper aduncum shoots remained fresh. Referring to Table 5A, a total of 16 eggs were laid in the first 8 days. The majority of eggs (62.5%) were laid on unsprayed lime plant. However, a significant number of eggs were laid on sprayed Piper aduncum shoots (37.5%). […] No eggs were laid on unsprayed Piper aduncum.
After day 8, the Piper aduncum leaves began to wilt and were noticeably less attractive to gravid females. […] By day 20, no more eggs were laid, and the total number of eggs was counted.
All of the eggs that were laid on lime plant hatched into larvae that fed normally on the lime plant leaves on which they were laid. The 6 eggs laid on Piper aduncum shoots sprayed with lime oil or d-limonene hatched normally. The Piper aduncum shoots were still young, fresh, and otherwise capable of sustaining larvae when the eggs laid eggs on sprayed Piper aduncum shoots hatched. […]

## C=C(C)[C@H]1CC=C(C)CC1 [d-limonene]
P. demoleus [1]
  breeding and feeding on sprayed Piper amalago var. amalago plants: majority of the P. demoleus population was induced to breed, but not feed
P. demoleus [2]; Days 1-8, choice vs unsprayed lime and unsprayed Piper aduncum, total 16 eggs
  eggs laid on sprayed Piper aduncum: 3 eggs
P. demoleus [2]; Days 9-20 as titled, total 39 eggs
  eggs laid on sprayed Piper aduncum: 3 eggs
